Earlier results in patent US20050014730A1, “Anti-fungal formulation of triterpene and essential oil” (priority 2003, published 2005).

## C=C(C)[C@@H]1CC[C@]2(CO)CC[C@]3(C)[C@H](CC[C@@H]4[C@@]5(C)CC[C@H](O)C(C)(C)[C@@H]5CC[C@]43C)[C@@H]12 [betulin]
  solubility of betulin in water: about 0.15 mg/l
